Test results published in publication PMC8047731 (ACS Omega, 2021).
Values belong to the molecule of their own block, whether it stands above or below them.

Key:
HeLa cells = experiment: Cisplatin potentiation assay; format: cell-based; conditions: 25 μM compound + […] μM cisplatin (LD10), 72 h, alamarBlue
[1] = test system: short duplex DNA substrate (EtBr-DS); experiment: Ethidium bromide displacement assay; format: binding; conditions: compound at exonuclease IC50 of SNM1A, 10 min
[2] = molecular target: T1, SNM1A exonuclease activity (Homo sapiens, UniProt Q6PJP8); experiment: Gel-based IC50 determination, SNM1A exonuclease activity; conditions: 0.2 nM SNM1A, 110 nM 5P-1F, 60 min, 37 °C, triplicate
T1 sequence (Q6PJP8 698-1040): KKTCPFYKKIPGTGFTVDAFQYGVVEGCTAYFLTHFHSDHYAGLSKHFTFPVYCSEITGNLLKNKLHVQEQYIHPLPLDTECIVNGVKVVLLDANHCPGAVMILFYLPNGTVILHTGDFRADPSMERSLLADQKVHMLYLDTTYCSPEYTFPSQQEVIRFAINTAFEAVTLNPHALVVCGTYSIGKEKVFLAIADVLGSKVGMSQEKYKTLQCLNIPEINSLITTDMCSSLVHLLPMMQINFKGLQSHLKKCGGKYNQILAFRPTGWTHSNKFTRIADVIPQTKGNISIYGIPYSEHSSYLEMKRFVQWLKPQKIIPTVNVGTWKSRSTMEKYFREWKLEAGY

nuclease = conditions: cited from earlier work
SNM1A = molecular target: T2, SNM1A (Homo sapiens, UniProt Q6PJP8); experiment: Gel-based secondary screen validation; format: biochemical; conditions: 25 and 6.25 μM compound
T2 sequence (Q6PJP8 698-1040): T1 sequence (Q6PJP8 698-1040)

SMILES: O=c1cc(-c2ccc(O)c(-c3c(O)cc(O)c4c(=O)cc(-c5ccc(O)cc5)oc34)c2)oc2cc(O)cc(O)c12 [Compound 13, AMENTOFLAVONE]
- Cell survival with sublethal cisplatin (potentiation) (HeLa cells): reduced cell survival
- Displacement of ethidium bromide from DNA [1]: do not appear to significantly displace ethidium bromide

- Exonuclease IC50 [2]: nanomolar range
SMILES: O=C(O)C1=CC(=C(c2ccc(O)c(C(=O)O)c2)c2ccc(O)c(C(=O)O)c2)C=CC1=O [Compound 20, AURINTRICARBOXYLIC ACID]
- Nuclease inhibition (nuclease): nonspecific nuclease inhibitor
- Displacement of ethidium bromide from DNA [1]: apparent nonspecific interactions with DNA

SMILES: Nc1c(S(=O)(=O)O)cc(Nc2ccc(Nc3nc(Cl)nc(Nc4cccc(S(=O)(=O)O)c4)n3)c(S(=O)(=O)O)c2)c2c1C(=O)c1ccccc1C2=O [Compound 30, REACTIVE BLUE 2]
- Cell survival with sublethal cisplatin (potentiation) (HeLa cells): reduced cell survival
- Displacement of ethidium bromide from DNA [1]: apparent nonspecific interactions with DNA

SMILES: O=C(O[C@@H]1Cc2c(O)cc(O)cc2O[C@@H]1c1cc(O)c(=O)c2c(O)c(O)cc([C@H]3Oc4cc(O)cc(O)c4C[C@H]3OC(=O)c3cc(O)c(O)c(O)c3)c2c1)c1cc(O)c(O)c(O)c1 [Compound 40, […]]
- Displacement of ethidium bromide from DNA [1]: apparent nonspecific interactions with DNA

- Assay interference in the gel-based screen (reason for exclusion) (SNM1A): internal fluorescence
SMILES: C[C@@H]1CC[C@@]23CCC4(C)[C@@](C=CC5[C@@]6(C)CCC(=O)C(C)(C)C6CC[C@]54C)(OC2=O)C3[C@H]1C (some centres unmarked) [Compound 44, 3-OXOURSAN (28-13)OLIDE]

- Assay interference in the gel-based screen (reason for exclusion) (SNM1A): internal fluorescence
SMILES: O=C1OC2(c3ccc(O)cc3Oc3cc(O)ccc32)c2ccccc21 [Compound 54, FLUORESCEIN]

SMILES: COC(=O)c1cc(O)c(=O)c2c(O)c(O)ccc2c1 [Compound 61, METHYL 7-DESHYDROXYPYROGALLIN-4-CARBOXYLATE]
- Displacement of ethidium bromide from DNA [1]: do not appear to significantly displace ethidium bromide
